Among the data in patent US7189718B2, “Non-nucleoside reverse transcriptase inhibitors” (Roche Palo Alto LLC, priority 2003, dated 2007) are IC50 values, retold here.

The test concerns the target T1, HIV-1 RT (Human immunodeficiency virus type 1 group M subtype B, UniProt P03366).
T1 construct: HIV-1 RT assay was carried out in 96-well Millipore MultiScreen MADVNOB50 plates using purified recombinant enzyme
Description: HIV Reverse Transcriptase Assay: Inhibitor IC50 Determination. The test is classed as biochemical. Particulars: purified recombinant enzyme, poly(rA)/oligo(dT)16 template-primer, 4 nM HIV-1 RT, 37° C. for 30 min, 10% DMSO; read-out: RT inhibition IC50. As for the experimental part: HIV Reverse Transcriptase Assay: Inhibitor IC50 Determination
HIV-1 RT assay was carried out in 96-well Millipore MultiScreen MADVNOB50 plates using purified recombinant enzyme and a poly(rA)/oligo(dT)16 template-primer in a total volume of 50 μL. The assay constituents were 50 mM Tris/HCl 50 mM NaCl, 1 mM EDTA, 6 mM MgCl2, 5 μM dTTP, 0.15 μCi [^3H] dTTP, 5 μg/ml poly (rA) pre annealed to 2.5 μg/ml oligo (dT)16 and a range of inhibitor concentrations in a final concentration of 10% DMSO. Reactions were initiated by adding 4 nM HIV-1 RT and after incubation at 37° C. for 30 min, they were stopped by the addition of 50 μl ice cold 20% TCA and allowed to precipitate at 4° C. for 30 min. The precipitates were collected by applying vacuum to the plate and sequentially washing with 3×200 μl of 10% TCA and 2×200 μl 70% ethanol. Finally, the plates were dried and radioactivity counted in a Packard TopCounter after the addition of 25 μl scintillation fluid per well. IC50's, were calculated by plotting % inhibition versus log10 inhibitor concentrations.

Usually IC50 stands for the point on the concentration scale where inhibition reaches its midpoint. In the case of `O=c1ccc(Cc2ccc(Cl)c(Oc3cc(Cl)ccc3Br)c2)n[nH]1` [I-77, 6-[3-(2-Bromo-5-chloro-phenoxy)-4-chloro-benzyl]-2H-pyridazin-3-one], the IC50 came out at 24.2 nM. For `CCc1ccc(Cc2cc(C)c(=O)[nH]n2)cc1Oc1cc(Cl)cc(C#N)c1` [I-98, 3-Chloro-5-[2-ethyl-5-(5-methyl-6-oxo-1,6-dihydro-pyridazin-3-ylmethyl)-phenoxy]-benzonitrile], the IC50 was 19.4 nM. In the case of `CCc1ccc(Cc2ccc(=O)[nH]n2)cc1Oc1cc(C)cc(C#N)c1` [I-100, 3-[2-Ethyl-5-(6-oxo-1,6-dihydro-ridazin-3-ylmethyl)-phenoxy]-5-methyl-nzonitrile] it was 24.1 nM; in that of `O=c1ccc(Cc2ccc(Cl)c(Oc3cc(Cl)ccc3Cl)c2)n[nH]1` [I-102, 6-[4-Chloro-3-(2,5-dichloro-phenoxy)-benzyl]-2H-pyridazin-3-one], 20.6 nM; in that of `Cc1cc(Cc2ccc(Cl)c(Oc3cc(Cl)ccc3Br)c2)n[nH]c1=O` [I-103, 6-[3-(2-Bromo-5-chloro-phenoxy)-4-chloro-benzyl]-4-methyl-2H-pyridazin-3-one], 9.35 nM. On to `Cc1cc(Cc2ccc(Cl)c(Oc3cc(Cl)cc(C#N)c3)c2)n[nH]c1=O` [I-108, 3-Chloro-5-[2-chloro-5-(5-methyl-6-oxo-1,6-dihydro-pyridazin-3-ylmethyl)-phenoxy]-benzonitrile], for which the IC50 was found to be 11.1 nM. The value for `CCc1ccc(Cc2cc(C)c(=O)[nH]n2)cc1Oc1cc(C)cc(C#N)c1` [I-109, 3-[2-Ethyl-5-(5-methyl-6-oxo-1,6-dihydro-yridazin-3-ylmethyl)-phenoxy]-5-methyl-benzonitrile] was 21.6 nM; that for `Cc1ccc(Cl)cc1Oc1cc(Cc2cc(C)c(=O)[nH]n2)ccc1Cl` [I-123, 6-[4-Chloro-3-(5-chloro-2-methyl-phenoxy)-benzyl]-4-methyl-2H-pyridazin-3-one] was 23.1 nM; that for `Cc1cc(Cc2ccc(Cl)c(Oc3cc(C#N)cc(C#N)c3)c2)n[nH]c1=O` [I-135, 5-[2-Chloro-5-(5-methyl-6-oxo-1,6-dihydro-pyridazin-3-ylmethyl)-phenoxy]-isophthalonitrile] was 12.5 nM. `O=c1ccc(Cc2ccc(Cl)c(Oc3cc(Cl)ccc3Br)c2F)n[nH]1` [I-136, 6-[3-(2-Bromo-5-chloro-phenoxy)-4-chloro-2-fluoro-benzyl]-2H-pyridazin-3-one]: the IC50 amounted to 8 nM. As to `O=c1ccc(Cc2cc(Oc3cc(Br)cc(Br)c3)c3occc3c2)n[nH]1` [I-142, 6-[7-(3,5-Dibromo-phenoxy)-benzofuran-5-ylmethyl]-2H-pyridazin-3-one], the half-inhibitory concentration (IC50) was 15 nM. Consider `CCc1ccc(Cc2ccc(=O)[nH]n2)c(F)c1Oc1cc(Cl)cc(C#N)c1` [I-224, 3-Chloro-5-[6-ethyl-2-fluoro-3-(6-oxo-1,6-dihydro-pyridazin-3-ylmethyl)-phenoxy]-benzonitrile], for which the IC50 amounted to 18 nM. In the case of `Cc1cc(Cc2ccc(Cl)c(Oc3cc(C#N)cc(C(F)F)c3)c2F)n[nH]c1=O` [I-237, 3-[6-Chloro-2-fluoro-3-(5-methyl-6-oxo-1,6-dihydro-pyridazin-3-ylmethyl)-phenoxy]-5-difluoromethyl-benzonitrile] it was 12.8 nM.
